assay: Compound was tested for inhibition of [125I]eledoisin radioligand binding to NK3 receptor from gerbil cortex

IC50	Compound
10 µM	Cc1cc(C)cc(C(=O)N2CC[C@H](NCc3cnc4ccccc4c3)C[C@H]2Cc2ccccc2)c1 [{(2R,4S)-2-Benzyl-4-[(quinolin-3-ylmethyl)-amino]-piperidin-1-yl}-(3,5-dimethyl-phenyl)-methanone]

assay: Inhibition of [3H]-SP radioligand binding to NK1 receptor from bovine retina

IC50	Compound
0.03 µM	Cc1cc(C)cc(C(=O)N2CC[C@H](NCc3cnc4ccccc4c3)C[C@H]2Cc2ccccc2)c1 [{(2R,4S)-2-Benzyl-4-[(quinolin-3-ylmethyl)-amino]-piperidin-1-yl}-(3,5-dimethyl-phenyl)-methanone]

assay: Compound was tested for inhibition of NK1 receptor from gerbil midbrain; NT means not tested

Compound	IC50
O=C(Cc1ccccc1)N1CC[C@H](NCc2ccnc3ccccc23)C[C@H]1Cc1ccccc1 [1-{(2R,4S)-2-Benzyl-4-[(quinolin-4-ylmethyl)-amino]-piperidin-1-yl}-2-phenyl-ethanone]	3.3 µM
FC(F)(F)c1cc(CN2CC[C@H](NCc3ccnc4ccccc34)C[C@H]2Cc2ccccc2)cc(C(F)(F)F)c1 [[(2R,4S)-2-Benzyl-1-(3,5-bis-trifluoromethyl-benzyl)-piperidin-4-yl]-quinolin-4-ylmethyl-amine]	0.88 µM
CC(C)NC(=O)N[C@H]1CCN(C(=O)c2cc(C(F)(F)F)cc(C(F)(F)F)c2)[C@H](Cc2ccccc2)C1 [1-[(2R,4S)-2-Benzyl-1-(3,5-bis-trifluoromethyl-benzoyl)-piperidin-4-yl]-3-isopropyl-urea]	0.02 µM
NC(=O)CN[C@H]1CCN(C(=O)c2cc(C(F)(F)F)cc(C(F)(F)F)c2)[C@H](Cc2ccccc2)C1 [2-[(2R,4S)-2-Benzyl-1-(3,5-bis-trifluoromethyl-benzoyl)-piperidin-4-ylamino]-acetamide]	0.01 µM
NCC(=O)N[C@H]1CCN(C(=O)c2cc(C(F)(F)F)cc(C(F)(F)F)c2)[C@H](Cc2ccccc2)C1 [2-Amino-N-[(2R,4S)-2-benzyl-1-(3,5-bis-trifluoromethyl-benzoyl)-piperidin-4-yl]-acetamide]	0.062 µM
O=S(=O)(c1cc(C(F)(F)F)cc(C(F)(F)F)c1)N1CC[C@H](NCc2ccnc3ccccc23)C[C@H]1Cc1ccccc1 [[(2R,4S)-2-Benzyl-1-(3,5-bis-trifluoromethyl-benzenesulfonyl)-piperidin-4-yl]-quinolin-4-ylmethyl-amine]	> 10 µM
O=C(Cc1ccccc1)N[C@H]1CCN(C(=O)c2cc(Cl)cc(Cl)c2)[C@H](Cc2ccccc2)C1 [N-[(2R,4S)-2-Benzyl-1-(3,5-dichloro-benzoyl)-piperidin-4-yl]-2-phenyl-acetamide]	0.06 µM
COc1cc(CC(=O)N[C@H]2CCN(C(=O)c3cc(C)cc(C)c3)[C@H](Cc3ccccc3)C2)cc(OC)c1 [N-[(2R,4S)-2-Benzyl-1-(3,5-dimethyl-benzoyl)-piperidin-4-yl]-2-(3,5-dimethoxy-phenyl)-acetamide]	0.012 µM
CN(C)CCCOC(=O)N[C@H]1CCN(C(=O)c2cc(C(F)(F)F)cc(C(F)(F)F)c2)[C@H](Cc2ccccc2)C1 [[(2R,4S)-2-Benzyl-1-(3,5-bis-trifluoromethyl-benzoyl)-piperidin-4-yl]-carbamic acid 3-dimethylamino-propyl ester]	0.011 µM
CN(Cc1ccnc2ccccc12)[C@H]1CCN(C(=O)c2cc(Cl)cc(Cl)c2)[C@H](Cc2ccccc2)C1 [[(2R,4S)-2-Benzyl-4-(methyl-quinolin-4-ylmethyl-amino)-piperidin-1-yl]-(3,5-dichloro-phenyl)-methanone]	0.39 µM
Cc1cc(C)cc(C(=O)N2CC[C@H](NCc3ccccc3)C[C@H]2Cc2ccccc2)c1 [((2R,4S)-2-Benzyl-4-benzylamino-piperidin-1-yl)-(3,5-dimethyl-phenyl)-methanone]	0.22 µM
O=C(c1cc(Cl)cc(Cl)c1)N1CC[C@H](N(Cc2ccnc3ccccc23)C(=O)C(F)(F)F)C[C@H]1Cc1ccccc1 [N-[(2R,4S)-2-Benzyl-1-(3,5-dichloro-benzoyl)-piperidin-4-yl]-2,2,2-trifluoro-N-quinolin-4-ylmethyl-acetamide]	0.6 µM
O=C(Nc1ccccc1)N[C@H]1CCN(C(=O)c2cc(Cl)cc(Cl)c2)[C@H](Cc2ccccc2)C1 [1-[(2R,4S)-2-Benzyl-1-(3,5-dichloro-benzoyl)-piperidin-4-yl]-3-phenyl-urea]	0.072 µM

Other lines, results leading:

IC50	Compound
0.52 µM	O=C(c1cc(O)cc(O)c1)N1CC[C@H](NCc2ccnc3ccccc23)C[C@H]1Cc1ccccc1 [{(2R,4S)-2-Benzyl-4-[(quinolin-4-ylmethyl)-amino]-piperidin-1-yl}-(3,5-dihydroxy-phenyl)-methanone]
0.024 µM	O=C(c1cc(Br)cc(Br)c1)N1CC[C@H](NCc2ccnc3ccccc23)C[C@H]1Cc1ccccc1 [{(2R,4S)-2-Benzyl-4-[(quinolin-4-ylmethyl)-amino]-piperidin-1-yl}-(3,5-dibromo-phenyl)-methanone]
0.017 µM	O=C(c1cc(C(F)(F)F)cc(C(F)(F)F)c1)N1CC[C@H](NCc2ccnc3ccccc23)C[C@H]1Cc1ccccc1 [{(2R,4S)-2-Benzyl-4-[(quinolin-4-ylmethyl)-amino]-piperidin-1-yl}-(3,5-bis-trifluoromethyl-phenyl)-methanone]
0.7 µM	O=C(c1ccc2ccccc2c1)N1CC[C@H](NCc2ccnc3ccccc23)C[C@H]1Cc1ccccc1 [{(2R,4S)-2-Benzyl-4-[(quinolin-4-ylmethyl)-amino]-piperidin-1-yl}-naphthalen-2-yl-methanone]
0.026 µM	O=C(c1cc(Cl)cc(Cl)c1)N1CC[C@H](NCc2ccnc3ccccc23)C[C@H]1Cc1ccccc1 [{(2R,4S)-2-Benzyl-4-[(quinolin-4-ylmethyl)-amino]-piperidin-1-yl}-(3,5-dichloro-phenyl)-methanone]
0.11 µM	O=C(c1cccc2ccccc12)N1CC[C@H](NCc2ccnc3ccccc23)C[C@H]1Cc1ccccc1 [{(2R,4S)-2-Benzyl-4-[(quinolin-4-ylmethyl)-amino]-piperidin-1-yl}-naphthalen-1-yl-methanone]
0.092 µM	COc1cc(OC)cc(C(=O)N2CC[C@H](NCc3ccnc4ccccc34)C[C@H]2Cc2ccccc2)c1 [{(2R,4S)-2-Benzyl-4-[(quinolin-4-ylmethyl)-amino]-piperidin-1-yl}-(3,5-dimethoxy-phenyl)-methanone]
0.21 µM	Cc1cc(C)cc(C(=O)N2CC[C@H](NCc3ccncc3)C[C@H]2Cc2ccccc2)c1 [{(2R,4S)-2-Benzyl-4-[(pyridin-4-ylmethyl)-amino]-piperidin-1-yl}-(3,5-dimethyl-phenyl)-methanone]
0.019 µM	Cc1cc(C)cc(C(=O)N2CC[C@H](NCc3cc4ccccc4cn3)C[C@H]2Cc2ccccc2)c1 [{(2R,4S)-2-Benzyl-4-[(isoquinolin-3-ylmethyl)-amino]-piperidin-1-yl}-(3,5-dimethyl-phenyl)-methanone]
0.054 µM	O=C(c1cccc(Cl)c1)N1CC[C@H](NCc2ccnc3ccccc23)C[C@H]1Cc1ccccc1 [{(2R,4S)-2-Benzyl-4-[(quinolin-4-ylmethyl)-amino]-piperidin-1-yl}-(3-chloro-phenyl)-methanone]

Source: BindingDB's records for doi:10.1016/0960-894X(96)00287-9 (1996)
